From ChEMBL document CHEMBL3526080, “In vitro inhibition of the bile salt export pump correlates with risk of cholestatic drug-induced liver injury in humans” (Drug Metab Dispos, 2012)

How the values were obtained:
Bile salt export pump [1] = target: Bile salt export pump (Homo sapiens, UniProt O95342); assay: Inhibition of human BSEP expressed in plasma membrane vesicles of Sf21 cells assessed as inhibition of ATP-dependent [3H]taurocholate uptake; format: cell membranes
Bile salt export pump [2] = target: Bile salt export pump (Rattus norvegicus, UniProt O70127); assay: Inhibition of Sprague-Dawley rat Bsep expressed in plasma membrane vesicles of Sf21 cells assessed as inhibition of ATP-dependent [3H]taurocholate uptake; format: cell membranes
Bile salt export pump (Rattus norvegicus, UniProt O70127), sequence (O70127 whole entry): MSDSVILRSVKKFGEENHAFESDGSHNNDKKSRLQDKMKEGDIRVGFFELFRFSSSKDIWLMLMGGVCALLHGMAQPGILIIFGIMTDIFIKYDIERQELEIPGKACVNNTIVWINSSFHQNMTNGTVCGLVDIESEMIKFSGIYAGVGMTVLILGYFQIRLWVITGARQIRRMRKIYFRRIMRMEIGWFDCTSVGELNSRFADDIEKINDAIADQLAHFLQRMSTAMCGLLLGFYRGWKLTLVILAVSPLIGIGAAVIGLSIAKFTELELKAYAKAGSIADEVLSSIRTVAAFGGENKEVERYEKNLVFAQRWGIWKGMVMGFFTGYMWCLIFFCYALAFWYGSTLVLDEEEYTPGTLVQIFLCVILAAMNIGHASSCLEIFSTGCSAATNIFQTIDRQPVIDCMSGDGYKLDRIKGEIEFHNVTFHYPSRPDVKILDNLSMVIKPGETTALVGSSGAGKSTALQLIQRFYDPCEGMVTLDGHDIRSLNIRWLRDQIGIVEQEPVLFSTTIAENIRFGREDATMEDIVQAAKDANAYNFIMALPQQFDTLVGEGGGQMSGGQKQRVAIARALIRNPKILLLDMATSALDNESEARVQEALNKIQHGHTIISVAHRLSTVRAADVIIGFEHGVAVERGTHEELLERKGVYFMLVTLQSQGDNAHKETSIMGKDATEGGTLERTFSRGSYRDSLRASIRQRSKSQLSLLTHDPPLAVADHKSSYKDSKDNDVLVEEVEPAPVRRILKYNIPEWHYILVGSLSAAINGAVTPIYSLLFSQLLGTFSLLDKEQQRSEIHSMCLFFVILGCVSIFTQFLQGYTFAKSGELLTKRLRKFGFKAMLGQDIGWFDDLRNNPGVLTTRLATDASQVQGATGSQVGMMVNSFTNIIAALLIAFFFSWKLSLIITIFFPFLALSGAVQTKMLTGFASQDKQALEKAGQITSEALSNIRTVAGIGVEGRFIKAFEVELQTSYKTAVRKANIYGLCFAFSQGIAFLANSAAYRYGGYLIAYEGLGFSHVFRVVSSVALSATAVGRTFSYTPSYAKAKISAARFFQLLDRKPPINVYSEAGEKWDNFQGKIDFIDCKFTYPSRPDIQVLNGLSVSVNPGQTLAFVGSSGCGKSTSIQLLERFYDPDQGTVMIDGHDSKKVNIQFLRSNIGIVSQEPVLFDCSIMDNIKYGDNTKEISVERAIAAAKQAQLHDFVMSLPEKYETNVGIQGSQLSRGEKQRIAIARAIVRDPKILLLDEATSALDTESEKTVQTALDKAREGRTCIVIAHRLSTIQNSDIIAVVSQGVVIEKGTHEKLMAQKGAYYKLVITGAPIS

Bile salt export pump (Homo sapiens, UniProt O95342), sequence (O95342 whole entry): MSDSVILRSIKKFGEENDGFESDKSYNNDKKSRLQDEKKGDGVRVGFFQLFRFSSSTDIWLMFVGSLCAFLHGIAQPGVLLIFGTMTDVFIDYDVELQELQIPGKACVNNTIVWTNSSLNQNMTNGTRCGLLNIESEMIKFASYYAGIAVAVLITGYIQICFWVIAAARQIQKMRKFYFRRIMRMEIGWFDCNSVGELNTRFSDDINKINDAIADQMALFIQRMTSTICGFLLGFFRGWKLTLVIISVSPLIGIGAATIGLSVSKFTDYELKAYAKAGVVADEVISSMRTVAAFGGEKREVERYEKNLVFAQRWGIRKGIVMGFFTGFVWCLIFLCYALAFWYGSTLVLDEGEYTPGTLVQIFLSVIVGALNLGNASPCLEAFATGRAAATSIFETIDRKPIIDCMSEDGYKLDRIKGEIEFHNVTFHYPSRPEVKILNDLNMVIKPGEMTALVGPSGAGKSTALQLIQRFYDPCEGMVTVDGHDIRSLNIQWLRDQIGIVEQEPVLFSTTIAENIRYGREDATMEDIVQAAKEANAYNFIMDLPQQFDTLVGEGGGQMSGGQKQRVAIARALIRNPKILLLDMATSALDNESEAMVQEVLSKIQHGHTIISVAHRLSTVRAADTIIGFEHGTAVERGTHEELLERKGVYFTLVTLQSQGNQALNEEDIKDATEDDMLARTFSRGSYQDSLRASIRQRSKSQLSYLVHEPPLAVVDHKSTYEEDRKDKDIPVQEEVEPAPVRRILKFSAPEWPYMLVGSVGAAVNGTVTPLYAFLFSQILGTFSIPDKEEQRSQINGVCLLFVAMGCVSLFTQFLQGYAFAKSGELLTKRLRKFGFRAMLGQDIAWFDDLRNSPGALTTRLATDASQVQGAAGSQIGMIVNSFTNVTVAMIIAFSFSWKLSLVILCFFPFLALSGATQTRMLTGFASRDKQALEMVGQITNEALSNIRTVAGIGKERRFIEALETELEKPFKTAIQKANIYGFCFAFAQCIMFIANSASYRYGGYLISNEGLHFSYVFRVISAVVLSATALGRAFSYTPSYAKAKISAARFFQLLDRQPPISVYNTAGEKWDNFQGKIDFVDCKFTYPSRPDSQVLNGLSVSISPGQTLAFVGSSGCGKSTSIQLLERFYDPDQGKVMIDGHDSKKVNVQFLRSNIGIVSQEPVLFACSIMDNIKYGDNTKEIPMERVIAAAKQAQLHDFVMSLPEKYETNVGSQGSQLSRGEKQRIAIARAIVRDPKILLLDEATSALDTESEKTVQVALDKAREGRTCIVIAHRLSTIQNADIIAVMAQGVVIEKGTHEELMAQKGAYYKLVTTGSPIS

Row | Compound | IC50 (Bile salt export pump [1]) [µM] | IC50 (Bile salt export pump [2]) [µM]
1 | CNC(=O)Oc1ccc2c(c1)[C@]1(C)CCN(C)[C@@H]1N2C [PHYSOSTIGMINE] | > 1000 | > 1000
2 | COc1ccc(C(=O)NCc2cccnc2)cc1C(=O)NCc1cccnc1 [PICOTAMIDE] | 441 | 637
3 | CC(N/C(=N\C#N)Nc1ccncc1)C(C)(C)C (stereo not given) [PINACIDIL ANHYDROUS] | 348 | 222
4 | CCc1ccc(CCOc2ccc(CC3SC(=O)NC3=O)cc2)nc1 (stereo not given) [PIOGLITAZONE] | 0.3 | 2
5 | CC(=O)Nc1ccc(OCC(O)CNC(C)C)cc1 (stereo not given) [PRACTOLOL] | > 1000 | > 1000
6 | O=C(C1CCCCC1)N1CC(=O)N2CCc3ccccc3C2C1 (stereo not given) [PRAZIQUANTEL] | 96.8 | 153
7 | CCCN(CCC)S(=O)(=O)c1ccc(C(=O)O)cc1 [PROBENECID] | 565 | 510
8 | Cc1ncc(CO)c(CO)c1O [PYRIDOXINE] | > 1000 | > 1000
9 | CO[C@H]1/C=C/O[C@@]2(C)Oc3c(C)c(O)c4c(O)c(c(/C=N/N5CCN(C)CC5)c(O)c4c3C2=O)NC(=O)/C(C)=C\C=C\[C@H](C)[C@H](O)[C@@H](C)[C@@H](O)[C@@H](C)[C@H](OC(C)=O)[C@@H]1C [RIFAMPIN] | 11.3 | 34.7
10 | CO[C@H]1/C=C/O[C@@]2(C)Oc3c(C)c(O)c4c(O)c(cc(O)c4c3C2=O)NC(=O)/C(C)=C\C=C\[C@H](C)[C@H](O)[C@@H](C)[C@@H](O)[C@@H](C)[C@H](OC(C)=O)[C@@H]1C [RIFAMYCIN] | 6.3 | 3.1
11 | CN(CCOc1ccc(CC2SC(=O)NC2=O)cc1)c1ccccn1 (stereo not given) [ROSIGLITAZONE] | 6.4 | 40
12 | O=C(O)c1ccccc1O [SALICYLIC ACID] | > 1000 | > 1000
13 | [H]/N=C(/N)N[C@H]1[C@H](O)[C@@H](O)[C@H](O[C@@H]2O[C@@H](C)[C@](O)(C=O)[C@H]2O[C@@H]2O[C@@H](CO)[C@H](O)[C@@H](O)[C@@H]2NC)[C@@H](N/C(N)=N\[H])[C@@H]1O [STREPTOMYCIN] | > 1000 | > 1000
14 | CCN1CCCC1CNC(=O)c1cc(S(N)(=O)=O)ccc1OC (stereo not given) [SULPIRIDE] | > 1000 | > 1000
15 | Nc1c2c(nc3ccccc13)CCCC2 [TACRINE] | > 1000 | > 1000
16 | CCCCNC(=O)NS(=O)(=O)c1ccc(C)cc1 [TOLBUTAMIDE] | > 1000 | > 1000
17 | Cc1ccc(C(=O)c2cc(O)c(O)c([N+](=O)[O-])c2)cc1 [TOLCAPONE] | 120 | 47.2
18 | Cc1c(C)c2c(c(C)c1O)CCC(C)(COc1ccc(CC3SC(=O)NC3=O)cc1)O2 (stereo not given) [TROGLITAZONE] | 2.7 | 10.6
19 | CCCC(CCC)C(=O)O [VALPROIC ACID] | > 1000 | > 1000
20 | CC(c1cc2ccccc2s1)N(O)C(N)=O (stereo not given) [ZILEUTON] | > 1000 | 564
